Laboratory results: patent US20230277570A1, “ENPP1 Inhibitors and Their Use for the Treatment of Cancer” (The Board of Trustees of the Leland Stanford Junior …, priority 2017, published 2023)

Target: T1, purified recombinant mouse ENPP1 (Mus musculus (Mouse), UniProt P06802)
Test: ENPP1 enzyme activity assay using 32P cGAMP as a substrate (TLC)
Format: biochemical
Details: 32P-cGAMP 5 μM, mouse ENPP1 20 nM, pH 7.5, 5 hours

T1 sequence (P06802 whole entry): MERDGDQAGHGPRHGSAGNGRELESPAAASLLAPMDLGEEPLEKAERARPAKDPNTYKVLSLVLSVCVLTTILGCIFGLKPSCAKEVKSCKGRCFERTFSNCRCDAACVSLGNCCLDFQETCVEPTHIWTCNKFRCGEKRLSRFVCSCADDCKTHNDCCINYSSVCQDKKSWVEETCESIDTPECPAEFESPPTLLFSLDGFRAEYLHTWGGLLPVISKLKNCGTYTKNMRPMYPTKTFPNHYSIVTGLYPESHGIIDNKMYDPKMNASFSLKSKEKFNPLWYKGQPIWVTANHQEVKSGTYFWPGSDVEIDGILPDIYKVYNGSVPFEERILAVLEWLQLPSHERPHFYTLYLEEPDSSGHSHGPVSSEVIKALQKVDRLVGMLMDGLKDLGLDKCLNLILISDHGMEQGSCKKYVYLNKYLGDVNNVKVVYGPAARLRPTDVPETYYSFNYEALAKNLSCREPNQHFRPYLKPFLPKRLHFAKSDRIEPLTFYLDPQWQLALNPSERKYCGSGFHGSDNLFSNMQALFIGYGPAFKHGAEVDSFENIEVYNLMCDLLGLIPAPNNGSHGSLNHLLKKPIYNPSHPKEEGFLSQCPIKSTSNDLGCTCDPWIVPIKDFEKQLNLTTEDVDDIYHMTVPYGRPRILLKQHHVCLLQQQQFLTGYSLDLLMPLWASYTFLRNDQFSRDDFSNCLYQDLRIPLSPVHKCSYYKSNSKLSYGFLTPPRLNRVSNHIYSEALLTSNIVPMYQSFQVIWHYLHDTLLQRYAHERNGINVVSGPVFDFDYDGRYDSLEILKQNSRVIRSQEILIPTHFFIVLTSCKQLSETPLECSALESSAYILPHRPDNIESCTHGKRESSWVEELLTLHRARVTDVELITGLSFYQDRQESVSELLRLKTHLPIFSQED

IC50 [µM]	SMILES
< 0.5	COc1ccc2c(N3CCC(CCP(=O)(O)O)CC3)nc(/C=C/c3cccnc3)nc2c1 [Compound 18]
0.5 to 5	COc1cc2ncnc(N3CCN(C(=O)CP(=O)(O)O)CC3)c2cc1OC [Compound 75]
< 0.5	COc1ccc2c(N3CCC(CCP(=O)(O)O)CC3)ncnc2c1 [Compound 10]

SMILES	IC50 [µM]
COc1cccc2c(N3CCC(CCP(=O)(O)O)CC3)ncnc12 [Compound 76]	< 0.5

Test system: 4T1-luciferase tumor
Test: 4T1 tumor model: tumor volume and survival with IR, cGAMP, anti-CTLA-4
Format: in vivo, Balb/c mice
Details: 20 Gy IR, then single agent intratumorally on day 2, 4 and 7 (100 μL of 100 μM compound 1 or 10 μg cGAMP)

SMILES	tumor shrinkage effect over IR treatment
Nc1nc2c(ncn2[C@@H]2O[C@@H]3COP(=O)(O)O[C@H]4[C@@H](O)[C@H](n5cnc6c(N)ncnc65)O[C@@H]4COP(=O)(O)O[C@@H]2[C@@H]3O)c(=O)[nH]1 [cGAMP, cyclic guanosine monophosphate-adenosine monophosphate]	no effect over IR treatment

Target: T1, purified recombinant mouse ENPP1
Test: ENPP1 activity assay using thymidine monophosphate paranitrophenol (TMP-pNP) as a substrate
Format: biochemical
Details: TMP-pNP 2 μM, mouse ENPP1 0.5 nM, pH 7.5
Method: Selected compounds of Table 1, Table 2 and other derivatives were prepared and assessed in an ENPP1 activity assay using thymidine monophosphate paranitrophenol (TMP-pNP) as a substrate. Enzyme reactions were prepared with TMP-pNP (2 μM), 5-fold dilutions of ENPP1 inhibitor, and purified recombinant mouse ENPP1 (0.5 nM) in 100 mM Tris, 150 mM NaCl, 2 mM CaCl2, 200 μM ZnCl2, pH 7.5 at room temperature. Reaction progress was monitored by measuring absorbance at 400 nm of paranitrophenolate produced by the reaction for 20 minutes.

IC50 [µM]	SMILES
< 0.5	COc1cc2ncnc([C@H]3CC[C@H](CCP(=O)(O)O)CC3)c2cc1OC [Compound 82, (2-((1,4-trans)-4-(6,7-dimethoxyquinazolin-4-yl)cyclohexyl)ethyl)phosphonic acid]
< 0.5	COc1cc2nccc(N3CCC(CCP(=O)(O)O)CC3)c2cc1OC [Compound 71]
0.5 to 5	O=P(O)(O)CCC1CCN(c2ncnc3ccc(O)cc23)CC1 [Compound 23]
< 0.5	COc1ccc2c(N3CCC(CCP(=O)(O)O)CC3)nc(/C=C/c3cccnc3)nc2c1 [Compound 18]
< 0.5	O=P(O)(O)CCC1CCN(c2ncnc3cccc(F)c23)CC1 [Compound 70]
> 10	COc1ccc2c(N3CCN(CCP(=O)(O)O)CC3)ncnc2c1 [Compound 42]
< 0.5	COc1cc(OC)c2ncnc(N3CCC(CCP(=O)(O)O)CC3)c2c1 [Compound 7]
< 0.5	COc1cc2ncnc(N3CCN(C(=O)CP(=O)(O)O)CC3)c2cc1OC [Compound 75]
< 0.5	COc1ccc2c(N3CCC(CCP(=O)(O)O)CC3)ncnc2c1 [Compound 10]
< 0.5	COc1cc2ncnc(N3CCC(CCB(O)O)CC3)c2cc1OC [Compound 87]
< 0.5	COc1cc2ncnc(N3CCC(CP(=O)(O)O)CC3)c2cc1OC [Compound 88, ((1-(6,7-dimethoxyquinazolin-4-yl)piperidin-4-yl)methyl)phosphonic acid]
< 0.5	COc1ccc2c(N3CCC(CCP(=O)(O)O)CC3)ncnc2c1OC [Compound 22]
0.5 to 5	COc1cc2ncnc(N3CCC(CC(=O)NO)CC3)c2cc1OC [Compound 61]
< 0.5	COc1ccc2ncnc(N3CCC(CCP(=O)(O)O)CC3)c2c1 [Compound 19]
< 0.5	O=P(O)(O)CCC1CCN(c2ncnc3cc(Cl)ccc23)CC1 [Compound 84]
< 0.5	O=P(O)(O)CCC1CCN(c2ncnc3ccccc23)CC1 [Compound 25]
> 10	CC(C)Oc1ccc2c(N3CCC(CCP(=O)(O)O)CC3)ncnc2c1 [Compound 11]
0.5 to 5	O=P(O)(O)CCC1CCN(c2ncnc3cc4c(cc23)OCCO4)CC1 [Compound 13]
0.5 to 5	COc1ccc(OC)c2c(N3CCC(CCP(=O)(O)O)CC3)ncnc12 [Compound 16]
< 0.5	Nc1ccc2c(N3CCC(CCP(=O)(O)O)CC3)ncnc2c1 [Compound 30]
< 0.5	COc1cc2ncnc(N3CCC(COP(=O)(O)O)CC3)c2cc1OC [Compound 60]
< 0.5	Cc1nccn1-c1cc(N2CCN(CCP(=O)(O)O)CC2)ncn1 [Compound 100]
> 10	CNC(=O)NCC1CCN(c2ncnc3cc(OC)c(OC)cc23)CC1 [Compound 73]
< 0.5	COc1ccc2c(N3CCC(CCP(=O)(O)O)CC3)nc(C)nc2c1 [Compound 12]
< 0.5	COc1cccc2c(N3CCC(COP(=O)(O)O)CC3)ncnc12 [Compound 86]
< 0.5	COc1cc2ncnc([C@H]3CC[C@@H](CCP(=O)(O)O)CC3)c2cc1OC [Compound 81, (2-((1,4-cis)-4-(6,7-dimethoxyquinazolin-4-yl)cyclohexyl)ethyl)phosphonic acid]
< 0.5	Cc1nccn1-c1cc(N2CCC(CCP(=O)(O)O)CC2)ncn1 [Compound 93]
< 0.5	COc1cc2ccnc(N3CCC(CCP(=O)(O)O)CC3)c2cc1OC [Compound 38]
< 0.5	O=P(O)(O)CCC1CCN(c2ncnc3cc(O)ccc23)CC1 [Compound 5]

SMILES	IC50 [µM]
COc1cccc2c(N3CCC(CCP(=O)(O)O)CC3)ncnc12 [Compound 76]	< 0.5
COc1cc2ncnc(N3CCC(CCP(O)(O)=S)CC3)c2cc1OC [Compound 83, (2-(1-(6,7-dimethoxyquinazolin-4-yl)piperidin-4-yl)ethyl)phosphonothioic O,O-acid]	< 0.5
COc1cc2ncnc(N3CCC(COP(O)(O)=S)CC3)c2cc1OC [Compound 67]	< 0.5
